Source: publication PMC9194936, “Preclinical Activity and Pharmacokinetic/Pharmacodynamic Relationship for a Series of Novel Benzenesulfonamide Perforin Inhibitors” (ACS Pharmacology & Translational Science, 2022)
Marks after values point to notes of the source that are not given here.

How the values were obtained:
[1] = Splenocyte cellularity and tolerability in the bone marrow transfer assay; type: in vivo; details: all dose levels (100, 75 and 50% of MTD), qd x 4
Description: For the determination of splenic cell counts, mouse spleens were harvested and the cells dispersed in media by gentle teasing and then centrifuged at 500g. Cell pellets were resuspended in media and total spleen cell counts were performed manually using a standard hemocytometer and light microscopy. […] Peripheral blood cell counts and spleen white blood cell counts were determined on a Beckman Coulter Ac.T diff hematology analyzer.

[2] = Bodyweight, spleen and blood cellularity in unmanipulated naive mice; type: in vivo, mouse
Excerpt: Splenic atrophy may occur as a direct treatment-related effect or indirectly subsequent to bodyweight loss.[32] Spleen size does normally vary so is not a reliable indicator of splenic dysfunction;[33] however, severe atrophy can prevent the normal function of the spleen and indicate systemic immunotoxicity.[34] Given that reduced splenic cellularity had not been noted in other in vivo mouse disease models using 1,[14],[15] we further investigated the impact of 1 on mouse spleen using extended dosing strategies on unmanipulated naïve mice and assessing changes in bodyweight, splenocyte, and blood cell counts and leukocyte frequencies in the spleen. The mice were treated with either 100 or 150 mg/kg of 1 given by intraperitoneal injection twice daily for up to 7 days.
For the determination of splenic cell counts, mouse spleens were harvested and the cells dispersed in media by gentle teasing and then centrifuged at 500g. Cell pellets were resuspended in media and total spleen cell counts were performed manually using a standard hemocytometer and light microscopy. Lymphocyte subsets were quantified by flow cytometry using the following antibody reagents: BV605 rat anti-mouse CD3 clone 17A2 (#564009, BD Biosciences); BV786 rat anti-mouse CD4 clone RM4–5 (#563727, BD Biosciences); BV711 rat anti-mouse CD8a clone 53-6.7 (#100748, BioLegend); PE-Cy7 mouse anti-mouse NK1.1 clone PK136 mouse (#552878, BD Biosciences); APC rat anti-mouse CD19 clone 1D3 (#550992, BD Biosciences). Peripheral blood cell counts and spleen white blood cell counts were determined on a Beckman Coulter Ac.T diff hematology analyzer.

[3] = Plasma protein binding by equilibrium dialysis; type: in vitro ADME, mouse
Description: The plasma protein binding of the compounds was determined by equilibrium dialysis (12–14 kDa cutoff membrane). […] The dialysis unit was covered with an adhesive sealing film to prevent evaporation of the contents and placed in an incubator (Innova-42, New Brunswick Scientific) maintained at 37 °C with gentle mixing (80 rpm) for 6 h. Next, a 10 μL sample was aspirated from the plasma side and mixed with 90 μL of fresh PBS, whereas a 90 μL sample from the buffer side was removed and combined with 10 μL of drug-free plasma to ensure uniform matrix composition. Ice-cold acetonitrile (300 μL; Merck Millipore, Burlington, MA) containing internal standard (a BZS analogue of similar chemical structure) was added to each sample to precipitate protein and was vortexed for 2 min and centrifuged for 5 min at 13 000 rpm. The supernatant was diluted with 0.01% formic acid in ultrapure water (Milli-Q) (1:1) and quantitated by liquid chromatography–tandem mass spectrometry (LC-MS/MS). Each compound was tested in triplicate alongside control compounds known to have low (e.g., lidocaine) and high (e.g., amitriptyline) plasma protein binding. For media binding studies, the same assay was used, but RPMI with 0.1% BSA was used in place of CD1 mouse plasma.

[4] = KHYG-1 viability (Trypan Blue exclusion); type: cell-based; details: human, KHYG-1 NK cells, at 20 μM
Description: The toxicity of perforin inhibitors toward KHYG-1 NK cells was determined as described previously.[14] KHYG-1 cells were preincubated with compounds in the same manner as the KHYG-1 cytotoxicity assay prior to the addition of RPMI with 0.1% BSA and incubation at 37 °C for 4 h. The cells were then washed and resuspended in complete medium and incubated for a further 24 h at 37 °C, after which cell viability was assessed by Trypan Blue (Thermo Fisher Scientific) exclusion.

SMILES: CN1Cc2cc(-c3ccc(-c4cncc(NS(=O)(=O)c5ccccc5[N+](=O)[O-])c4)s3)ccc2C1=O [Compound 1, N-{5-[5-(2-methyl-1-oxo-2,3-dihydro-1H-isoindol-5-yl)-2-thienyl]-3-pyridinyl}-2-nitrobenzenesulfonamide]
- reductions in splenocyte number [1]: only minor reductions
- tolerability [1]: well tolerated
- platelets ([2]; 100 mg/kg i.p. bid ×7, n = 2): 1041.5 ± 0.3 ^b ×10^9/L
- red blood cell ([2]; 100 mg/kg i.p. bid ×7, n = 2): 9.9 ± 0.3 ^b ×10^12/L
- white blood cell ([2]; 100 mg/kg i.p. bid ×7, n = 2): 6.1 ± 2.0 ^b ×10^9/L
- % change in bodyweight ([2]; 100 mg/kg i.p. bid ×7, n = 6): –5 ± 2%
- spleen: % CD3+CD4+ ([2]; 100 mg/kg i.p. bid ×7, n = 6): 7.9 ± 3.3%
- spleen: % CD3+CD8+ ([2]; 100 mg/kg i.p. bid ×7, n = 6): 9.1 ± 2.6%
- spleen: % CD19+ ([2]; 100 mg/kg i.p. bid ×7, n = 6): 45.4 ± 10.1%
- spleen: % NK1.1+ ([2]; 100 mg/kg i.p. bid ×7, n = 6): 2.3 ± 0.6%
- spleen: total cell count ([2]; 100 mg/kg i.p. bid ×7, n = 6): 0.39 ± 0.08 ×10^8
- % change in bodyweight ([2]; 150 mg/kg i.p. bid ×3, n = 3): –5.1 ± 5.9%
- platelets ([2]; 150 mg/kg i.p. bid ×3, n = 3): 1163 ± 149 ×10^9/L
- red blood cell ([2]; 150 mg/kg i.p. bid ×3, n = 3): 9.5 ± 0.9 ×10^12/L
- spleen: % CD3+CD4+ ([2]; 150 mg/kg i.p. bid ×3, n = 3): 5.6 ± 3.8%
- spleen: % CD3+CD8+ ([2]; 150 mg/kg i.p. bid ×3, n = 3): 10.6 ± 3.4%
- spleen: % CD19+ ([2]; 150 mg/kg i.p. bid ×3, n = 3): 41.4 ± 5.3%
- spleen: % NK1.1+ ([2]; 150 mg/kg i.p. bid ×3, n = 3): 5.0 ± 0.7%
- spleen: total cell count ([2]; 150 mg/kg i.p. bid ×3, n = 3): 0.41 ± 0.46 ×10^8
- white blood cell ([2]; 150 mg/kg i.p. bid ×3, n = 3): 6.0 ± 0.4 ×10^9/L
- weight loss, change in spleen or blood cell counts, reduction in splenic T, B or NK cells vs vehicle ([2]; 100 or 150 mg/kg i.p. twice daily for up to 7 days): Neither dosing schedule resulted in weight loss, change in spleen or blood cell counts or any reduction
- fraction unbound at 6 h ([3]; CD1, mouse, pH 7.4, without saturation of plasma protein binding (99.8% protein-bound), read-out: free fraction in plasma): 0.002
- total plasma concentration required for unbound IC90 at 6 h ([3]; CD1, mouse, pooled mouse plasma, pH 7.4, at a free fraction of 0.002, read-out: total plasma concentrations required to achieve unbound plasma concentrations equivalent to the in vitro unbound IC90): ~350 µM
- fraction unbound at 6 h, 10 μM ([3]; CD1, pH 7.4, mouse plasma, 10 μM, equilibrium dialysis): 0.002
- fraction unbound at 6 h, 10 μM ([3]; CD1, pooled mouse plasma, pH 7.4, concentration 10 μM, mouse plasma): 0.002
- fraction unbound at 6 h, 100 μM ([3]; CD1, pooled mouse plasma, pH 7.4, concentration 100 μM, mouse plasma): 0.0006
- fraction unbound at 6 h, 500 μM ([3]; CD1, pooled mouse plasma, pH 7.4, concentration 500 μM, mouse plasma): 0.0019
- fraction unbound at 6 h, 1000 μM ([3]; CD1, pooled mouse plasma, pH 7.4, concentration 1000 μM, mouse plasma): 0.0038
- increase in free drug concentrations ([3]; between 500 and 1000 μM): 4 fold
- unbound concentration ([3]; concentration 10 μM, mouse plasma): 20 nM
- unbound concentration ([3]; concentration 100 μM, mouse plasma): 60 nM
- unbound concentration ([3]; concentration 500 μM, mouse plasma): 950 nM
- unbound concentration ([3]; concentration 1000 μM, mouse plasma): 3800 nM

SMILES: O=C1NCc2ccc(-c3ccc(-c4cncc(NS(=O)(=O)c5ccc(F)cc5F)c4)s3)cc21 [Compound 7, 2,4-difluoro-N-{5-[5-(3-oxo-2,3-dihydro-1H-isoindol-5-yl)-2-thienyl]-3-pyridinyl}benzenesulfonamide]
- viability at 24 h, 20 µM [4]: 96 ± 6%
